Experimental data: the supplement of paper PMC11061612

Experiments:
Assay in all cases: combination Emax (second highest fraction inhibited in the dose matrix, 72 h); higher = more inhibition; extreme values may be limits of the assay
[1] = system: NCI-H810 (Non-Small Cell Lung Carcinoma)
Procedure, shortened: (§1)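 After 24 hours at 37°C and 5% CO2 in 1536-well plates, cells in DMEM/F12 or RPMI plus 10% FBS received two-drug dose matrices for 72 hours. Viability came from CellTiter-Glo 2.0 luminescence and was scaled as inhibition, anchored at 0 by vehicle wells and at 1 by blank wells. Combination Emax is taken as the second-highest inhibition in the matrix, and Bliss excess as the observed combination effect less EA + EB − EA·EB, with EA and EB the single-agent effects.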

[2] = system: SK-MM-2 (Plasma Cell Myeloma)
Procedure, shortened: as §1

[3] = system: OVTOKO (Ovarian Carcinoma)
Procedure, shortened: as §1

[4] = system: SNU-175 (Colorectal Carcinoma)
Procedure, shortened: as §1

Structure (SMILES)	combination Emax [1]	combination Emax [2]	combination Emax [3]	combination Emax [4]
Cc1c2c(nn1C)CSCc1cc(n(C)n1)CSc1cc(c3ccccc3c1)OCCCc1c(C(=O)O)n(C)c3c-2c(Cl)ccc13 [AZD5991] + C[C@@H]1COCCN1C2=NC(=NC(=C2)C3(CC3)[S@](=N)(=O)C)C4=C5C=CNC5=NC=C4 [AZD6738] (first compound max 1 µM, 7x7, partner max 10 µM)	0.904	0.637	0.452	0.862
Cc1c2c(nn1C)CSCc1cc(n(C)n1)CSc1cc(c3ccccc3c1)OCCCc1c(C(=O)O)n(C)c3c-2c(Cl)ccc13 [AZD5991] + C[C@@H](Nc1cc(F)cc(F)c1)c1cc(C(=O)N(C)C)cc2c(=O)cc(N3CCOCC3)oc12 [AZD8186] (first compound max 1 µM, 7x7, partner max 3 µM)	0.3	0.271	0.605	0.723
Cc1c2c(nn1C)CSCc1cc(n(C)n1)CSc1cc(c3ccccc3c1)OCCCc1c(C(=O)O)n(C)c3c-2c(Cl)ccc13 [AZD5991] + Cc1cc2ncnn2cc1Nc1ncc2c(n1)n(C1CCOCC1)c(=O)n2C [AZD7648] (first compound max 1 µM, 7x7, partner max 10 µM)	0.514	0.375	0.41	0.461
C[C@@H]1COCCN1c1cc(C2([S@](C)(=N)=O)CC2)nc(-c2ccnc3[nH]ccc23)n1 [AZD6738] + O=C(c1cc(Cc2n[nH]c(=O)c3ccccc23)ccc1F)N1CCN(C(=O)C2CC2)CC1 [Olaparib] (first compound max 10 µM, 7x7, partner max 10 µM)	0.766	0.572	0.398	0.532
Cc1cc2ncnn2cc1Nc1ncc2c(n1)n(C1CCOCC1)c(=O)n2C [AZD7648] + C=CCn1c(=O)c2cnc(Nc3ccc(N4CCN(C)CC4)cc3)nc2n1-c1cccc(C(C)(C)O)n1 [AZD1775] (first compound max 10 µM, partner max 1 µM)	0.881	0.573	0.561	0.53
Cc1cc2ncnn2cc1Nc1ncc2c(n1)n(C1CCOCC1)c(=O)n2C [AZD7648] + CCN(CCO)CCCOc1ccc2c(Nc3cc(CC(=O)Nc4cccc(F)c4)[nH]n3)ncnc2c1 [AZD2811] (first compound max 10 µM, 7x7, partner max 1 µM)	0.643	0.313	0.232	0.646
Cc1cc2ncnn2cc1Nc1ncc2c(n1)n(C1CCOCC1)c(=O)n2C [AZD7648] + CN(C)CCCOc1ccc(-c2ccc3ncc4c(c3c2)n(C2CCOCC2)c(=O)n4C)cn1 [AZD0156] (first compound max 10 µM, 7x7, partner max 1 µM)	0.287	0.205	0.229	0.173
Cc1cc2ncnn2cc1Nc1ncc2c(n1)n(C1CCOCC1)c(=O)n2C [AZD7648] + C[C@@H]1COCCN1C2=NC(=NC(=C2)C3(CC3)[S@](=N)(=O)C)C4=C5C=CNC5=NC=C4 [AZD6738] (first compound max 10 µM, 7x7, partner max 10 µM)	0.697	0.475	0.344	0.537
Cc1cc2ncnn2cc1Nc1ncc2c(n1)n(C1CCOCC1)c(=O)n2C [AZD7648] + O=C(c1cc(Cc2n[nH]c(=O)c3ccccc23)ccc1F)N1CCN(C(=O)C2CC2)CC1 [Olaparib] (first compound max 10 µM, 7x7, partner max 10 µM)	0.193	0.156	0.186	0.0944
COc1cccc2c1C(=O)c1c(O)c3c(c(O)c1C2=O)C[C@@](O)(C(=O)CO)C[C@@H]3O[C@H]1C[C@H](N)[C@H](O)[C@H](C)O1 [Doxorubicin] + Cc1cc2ncnn2cc1Nc1ncc2c(n1)n(C1CCOCC1)c(=O)n2C [AZD7648] (first compound max 1 µM, 7x7, partner max 10 µM)	0.756	0.371	0.216	0.823
COc1cccc(OCCCN)c1-c1cc(Nc2cnc(C#N)cn2)n[nH]1 [Prexasertib] + C=CCn1c(=O)c2cnc(Nc3ccc(N4CCN(C)CC4)cc3)nc2n1-c1cccc(C(C)(C)O)n1 [AZD1775] (first compound max 1 µM, partner max 1 µM)	0.981	0.723	0.606	0.744
COc1cccc(OCCCN)c1-c1cc(Nc2cnc(C#N)cn2)n[nH]1 [Prexasertib] + CCc1c2c(nc3ccc(O)cc13)-c1cc3c(c(=O)n1C2)COC(=O)[C@]3(O)CC [SN-38] (first compound max 1 µM, 7x7, partner max 0.3 µM)	0.98	0.875	0.532	0.734
COc1cccc(OCCCN)c1-c1cc(Nc2cnc(C#N)cn2)n[nH]1 [Prexasertib] + CN(C)CCCOc1ccc(-c2ccc3ncc4c(c3c2)n(C2CCOCC2)c(=O)n4C)cn1 [AZD0156] (first compound max 1 µM, 7x7, partner max 1 µM)	0.877	0.652	0.647	0.632
COc1cccc(OCCCN)c1-c1cc(Nc2cnc(C#N)cn2)n[nH]1 [Prexasertib] + C[C@@H]1COCCN1C2=NC(=NC(=C2)C3(CC3)[S@](=N)(=O)C)C4=C5C=CNC5=NC=C4 [AZD6738] (first compound max 1 µM, 7x7, partner max 10 µM)	0.9	0.634	0.516	0.616
COc1cccc(OCCCN)c1-c1cc(Nc2cnc(C#N)cn2)n[nH]1 [Prexasertib] + Cc1cc2ncnn2cc1Nc1ncc2c(n1)n(C1CCOCC1)c(=O)n2C [AZD7648] (first compound max 1 µM, 7x7, partner max 10 µM)	0.896	0.67	0.526	0.586
COc1cccc(OCCCN)c1-c1cc(Nc2cnc(C#N)cn2)n[nH]1 [Prexasertib] + O=C(c1cc(Cc2n[nH]c(=O)c3ccccc23)ccc1F)N1CCN(C(=O)C2CC2)CC1 [Olaparib] (first compound max 1 µM, 7x7, partner max 10 µM)	0.896	0.656	0.52	0.527
COc1cc2c(cc1OCCCCCOc1cc3c(cc1OC)C(=O)N1C=C(C)C[C@H]1C=N3)N=C[C@@H]1CC(C)=CN1C2=O [SG3199] + O=C(c1cc(Cc2n[nH]c(=O)c3ccccc23)ccc1F)N1CCN(C(=O)C2CC2)CC1 [Olaparib] (first compound max 0.001 µM, 7x7, partner max 10 µM)	0.131	0.137	0.111	0.112
CCc1c2c(nc3ccc(O)cc13)-c1cc3c(c(=O)n1C2)COC(=O)[C@]3(O)CC [SN-38] + CN(C)CCCOc1ccc(-c2ccc3ncc4c(c3c2)n(C2CCOCC2)c(=O)n4C)cn1 [AZD0156] (first compound max 0.3 µM, 7x7, partner max 1 µM)	0.51	0.883	0.194	0.478
CC(=O)Nc1cccc(-n2c(=O)n(C3CC3)c(=O)c3c(Nc4ccc(I)cc4F)n(C)c(=O)c(C)c32)c1 [Trametinib] + Cc1nc(-c2cn3c(n2)-c2ccc(-c4cnn(C(C)(C)C(N)=O)c4)cc2OCC3)n(C(C)C)n1 [Taselisib] (first compound max 1 µM, 7x7, partner max 10 µM)	0.121	0.43	0.795	0.627
CC1(C)CCC(CN2CCN(c3ccc(C(=O)NS(=O)(=O)c4ccc(NCC5CCOCC5)c([N+](=O)[O-])c4)c(Oc4cnc5[nH]ccc5c4)c3)CC2)=C(c2ccc(Cl)cc2)C1 [Venetoclax] + C1CN(CCC1(C(=O)N[C@@H](CCO)C2=CC=C(C=C2)Cl)N)C3=NC=NC4=C3C=CN4 [Capivasertib] (first compound max 1 µM, 7x7, partner max 3 µM)	0.113	1	0.462	0.162
CC1(C)CCC(CN2CCN(c3ccc(C(=O)NS(=O)(=O)c4ccc(NCC5CCOCC5)c([N+](=O)[O-])c4)c(Oc4cnc5[nH]ccc5c4)c3)CC2)=C(c2ccc(Cl)cc2)C1 [Venetoclax] + C=CCn1c(=O)c2cnc(Nc3ccc(N4CCN(C)CC4)cc3)nc2n1-c1cccc(C(C)(C)O)n1 [AZD1775] (first compound max 1 µM, partner max 1 µM)	0.781	1	0.529	0.553
CC1(C)CCC(CN2CCN(c3ccc(C(=O)NS(=O)(=O)c4ccc(NCC5CCOCC5)c([N+](=O)[O-])c4)c(Oc4cnc5[nH]ccc5c4)c3)CC2)=C(c2ccc(Cl)cc2)C1 [Venetoclax] + CCN(CCO)CCCOc1ccc2c(Nc3cc(CC(=O)Nc4cccc(F)c4)[nH]n3)ncnc2c1 [AZD2811] (first compound max 1 µM, 7x7, partner max 1 µM)	0.492	1	0.263	0.912
CC1(C)CCC(CN2CCN(c3ccc(C(=O)NS(=O)(=O)c4ccc(NCC5CCOCC5)c([N+](=O)[O-])c4)c(Oc4cnc5[nH]ccc5c4)c3)CC2)=C(c2ccc(Cl)cc2)C1 [Venetoclax] + CN(C)CCCOc1ccc(-c2ccc3ncc4c(c3c2)n(C2CCOCC2)c(=O)n4C)cn1 [AZD0156] (first compound max 1 µM, 7x7, partner max 1 µM)	0.121	1	0.385	0.128
CC1(C)CCC(CN2CCN(c3ccc(C(=O)NS(=O)(=O)c4ccc(NCC5CCOCC5)c([N+](=O)[O-])c4)c(Oc4cnc5[nH]ccc5c4)c3)CC2)=C(c2ccc(Cl)cc2)C1 [Venetoclax] + COc1cc(Nc2ncc3c(n2)-c2ccc(Cl)cc2C(c2c(F)cccc2OC)=NC3)ccc1C(=O)O [Alisertib] (first compound max 1 µM, 7x7, partner max 10 µM)	0.53	1	0.484	0.818
CC1(C)CCC(CN2CCN(c3ccc(C(=O)NS(=O)(=O)c4ccc(NCC5CCOCC5)c([N+](=O)[O-])c4)c(Oc4cnc5[nH]ccc5c4)c3)CC2)=C(c2ccc(Cl)cc2)C1 [Venetoclax] + C[C@@H]1COCCN1C2=NC(=NC(=C2)C3(CC3)[S@](=N)(=O)C)C4=C5C=CNC5=NC=C4 [AZD6738] (first compound max 1 µM, 7x7, partner max 10 µM)	0.577	1	0.566	0.658
CC1(C)CCC(CN2CCN(c3ccc(C(=O)NS(=O)(=O)c4ccc(NCC5CCOCC5)c([N+](=O)[O-])c4)c(Oc4cnc5[nH]ccc5c4)c3)CC2)=C(c2ccc(Cl)cc2)C1 [Venetoclax] + C[C@@H](Nc1cc(F)cc(F)c1)c1cc(C(=O)N(C)C)cc2c(=O)cc(N3CCOCC3)oc12 [AZD8186] (first compound max 1 µM, 7x7, partner max 3 µM)	0.0592	1	0.521	0.171
